Tested on: macrophages, RAW264.7 cells
Assay: Inhibition rate on inflammation (anti-inflammatory activity): nitric oxide, Griess reagent, LPS-treated macrophages
Assay type: cell-based
Conditions: Mus musculus; for inhibition at 1.5625 µM: apigenin 1.5625 μM/0.42 μg/mL; for inhibition at 3.125 µM: apigenin 3.125 μM/0.84 μg/mL; for inhibition at 6.25 µM: apigenin 6.25 μM/1.69 μg/mL; for inhibition at 12.5 µM: apigenin 12.5 μM/3.38 μg/mL; for inhibition at 25 µM: apigenin 25 μM/6.76 μg/mL; for inhibition at 50 µM: apigenin 50 μM/13.51 μg/mL; for inhibition at 0.625 µM: apigenin 0.625 μM/0.17 μg/mL; for inhibition at 1.25 µM: apigenin 1.25 μM/0.34 μg/mL; for inhibition at 2.5 µM: apigenin 2.5 μM/0.68 μg/mL; for inhibition at 5 µM: apigenin 5 μM/1.35 μg/mL; for inhibition at 10 µM: apigenin 10 μM/2.70 μg/mL; for inhibition at 0.3125 µM: apigenin 0.3125 μM/0.08 μg/mL
Protocol: Dimethyl sulfoxide (DMSO) was used as a solvent to prepare apigenin test samples with different concentrations and luteolin test samples with different concentrations. 9 batches of experiments were performed, which respectively were Batch 1 to Batch 9. There were 6 independent experiments in each batch of experiments. In each independent experiment, inhibition rate of an apigenin test sample with a specific concentration on inflammation and inhibition rate of a luteolin test sample with a specific concentration on inflammation were determined, and inhibition rate of a combination of an apigenin test sample with the said specific concentration and a luteolin test sample with the said specific concentration on inflammation was determined. Between the independent experiments, concentrations of apigenin test samples used were different, and concentrations of luteolin test samples used were also different, however, mole ratios or weight ratios of apigenin test samples to luteolin test samples were the same. Moreover, between the batches of experiments, mole ratios or weight ratios of apigenin test samples to luteolin test samples were different. 5×10^4 macrophages, RAW264.7 cells, were inoculated in a 96-well culture plate and then placed in a 37° C. and 5% CO2 incubator for culturing overnight. After overnight culture, the supernatant was removed, and lipopolysaccharide (LPS) (50 ng/mL) and a test sample was added to the cells (refer to Table 2, and the cells of the induced group were treated with lipopolysaccharide and dimethyl sulfoxide while the cells of the control group were only treated with dimethyl sulfoxide) for reaction for 24 hours. Thereafter, the supernatant of each well in the culture plate was transferred to a new culture plate and reacted with Griess reagent (Promega, Cat. No. G2930), respectively, and then the absorbance of each well of the culture plate was determined at 540 nm by a continuous wavelength microplate reader to evaluate the content of nitric oxide (NO), and anti-inflammatory activity was calculated through the following formula: Anti-inflammation=(Induced group540 nm−Experimental group540 nm)/(Induced group540 nm−Control group540 nm) In this experiment, the synergistic effects of apigenin and luteolin were evaluated by CalcuSyn software (BIOSOFT). CalcuSyn software is an analysis software which is commonly used to analyze the drug dosage effect of single drug and multiple drugs at present. CalcuSyn software can be used to analyze drug complex interactions and automatically quantify various phenomena such as synergism and inhibition. CalcuSyn software can process the data of individual drugs and combination drugs with constant-ratio or on-constant-ratio, and can evaluate the interaction of combination drugs by the combination index (CI) (Chou and Talalay, Adv. Enzyme Regul. 22:27-55 (1984) calculated by CalcuSyn software. Calculation formula for the combination index is shown in the following: Combination index=C1/IC1+C2/IC2 C1 and C2 are the respective concentrations of the first compound and the second compound at which the activity of achieving a specific physiological or medical purpose is 50% (or 75%, or 90%) when the first compound and the second compound are analyzed in combination; IC1 and IC2 are the respective concentrations at which the activity of achieving a specific physiological or medical purpose of the first compound and the second compound is 50% (or 75%, or 90%) when the first compound and the second compound are independently analyzed. […]

## O=c1cc(-c2ccc(O)cc2)oc2cc(O)cc(O)c12 [Apigenin, apigenin]
RAW264.7, Batch 1
  inhibition at 1.5625 µM: 1.1%
  inhibition at 3.125 µM: 7%
  inhibition at 6.25 µM: 26.3%
  inhibition at 12.5 µM: 48.1%
  inhibition at 25 µM: 78.7%
  inhibition at 50 µM: 99.9%
RAW264.7, Batch 2
  inhibition at 1.5625 µM: 2%
  inhibition at 3.125 µM: 16.6%
  inhibition at 6.25 µM: 23.7%
  inhibition at 12.5 µM: 32.9%
  inhibition at 25 µM: 74.1%
  inhibition at 50 µM: 99.9%
RAW264.7, Batch 3
  inhibition at 1.5625 µM: 0.1%
  inhibition at 3.125 µM: 0.9%
  inhibition at 6.25 µM: 20.2%
  inhibition at 12.5 µM: 57.9%
  inhibition at 25 µM: 93.8%
  inhibition at 50 µM: 99.5%
RAW264.7, Batch 4
  inhibition at 1.5625 µM: 0.1%
  inhibition at 3.125 µM: 0.1%
  inhibition at 6.25 µM: 12%
  inhibition at 12.5 µM: 45.4%
  inhibition at 25 µM: 93.4%
  inhibition at 50 µM: 99.9%
RAW264.7, Batch 5
  inhibition at 1.5625 µM: 3.4%
  inhibition at 3.125 µM: 11.2%
  inhibition at 6.25 µM: 27.9%
  inhibition at 12.5 µM: 59.5%
  inhibition at 25 µM: 92.7%
  inhibition at 50 µM: 97.6%
RAW264.7, Batch 6
  inhibition at 1.5625 µM: 18.9%
  inhibition at 3.125 µM: 7.4%
  inhibition at 6.25 µM: 28.9%
  inhibition at 12.5 µM: 59.4%
  inhibition at 25 µM: 97.2%
  inhibition at 50 µM: 99.9%
RAW264.7, Batch 7
  inhibition at 0.625 µM: 0.1%
  inhibition at 1.25 µM: 0.1%
  inhibition at 2.5 µM: 3.2%
  inhibition at 5 µM: 30%
  inhibition at 10 µM: 65.3%
RAW264.7, Batch 7, apigenin 20 μM/5.40 μg/mL
  inhibition at 20 µM: 96%
RAW264.7, Batch 8
  inhibition at 0.3125 µM: 0.1%
  inhibition at 0.625 µM: 0.1%
  inhibition at 1.25 µM: 0.1%
  inhibition at 2.5 µM: 0.6%
  inhibition at 5 µM: 20.6%
  inhibition at 10 µM: 51%
RAW264.7, Batch 9, apigenin 0.078 μM/0.02 μg/mL
  inhibition at 0.078 µM: 2%
RAW264.7, Batch 9, apigenin 0.156 μM/0.04 μg/mL
  inhibition at 0.156 µM: 0.2%
RAW264.7, Batch 9
  inhibition at 0.3125 µM: 10.4%
  inhibition at 0.625 µM: 6.5%
  inhibition at 1.25 µM: 6.5%
  inhibition at 2.5 µM: 14.9%

— patent publication US11491134B2, “Composition for inhibiting skin cell proliferation and/or anti-inflammation method for inhibiting skin cell proliferation and/or anti-inflammation and method for treating skin diseases and/or inflammatory diseases” (Industrial Technology Research Institute, priority 2019, dated 2022)
